According to patent US20260000642A1 (Tay Therapeutics Limited, priority 2022, published 2026):
pIC50: −log10 of the molar value. One block for each compound: values may come before it.

How the values were obtained:
BRD4 BD1 = target: T1, BRD4 BD1 (Homo sapiens, UniProt O60885); test: NanoBRET bromodomain assay, NanoLuc-BRD4-BD1 fusion vector in HEK293 cells; assay type: cell-based; settings: top concentration 10 μM
T1 construct: HEK293 cells were transfected using NanoLuc-BRD4-BD1 or NanoLuc-BRD4-BD2 fusion vectors; host or cells: HEK293
Excerpt: (§1) Bromodomain Assay Procedure

[1] = Sprague-Dawley rat pharmacokinetics (IV and PO); assay type: in vivo; settings: male Sprague-Dawley rats, cassette mode, Method 1; for IV T1/2: IV 1 mg/kg; for PO F (%) / bioavailability: PO 5 mg/kg (IV 1 mg/kg); for bioavailability: rat, plasma, read-out: PO F (%)
Excerpt: BET protein inhibitors with a long half-life and good oral bioavailability in in vivo DMPK parameters are promising oral drug candidates. Some of the exemplary compounds of the current disclosure have a long half-life and good oral bioavailability in in vivo DMPK parameters in the Sprague-Dawley rat following intravenous (IV) and oral (PO) dosing. The experimental methods and results (Table 5) are provided hereinafter.
Sprague-Dawley Rat Pharmacokinetics, Method 1
Compounds were formulated in 5% DMSO, 40% PEG-400, 55% Milli-Q water at a concentration of 0.2 mg/mL for IV and at 0.5 mg/mL for PO. Two male Sprague-Dawley rats per arm were dosed with up to 5 compounds in cassette mode, which each compound being dosed at 1 mg/kg IV and 5 mg/kg PO. Blood was sampled at various timepoints and plasma isolated. 50 μL of plasma with 5 μL of blank Sprague-Dawley rat plasma were added to 200 μL of acetonitrile containing IS mixture. The samples were vortexed for 30 s. After centrifugation at 4 degrees Celsius, 3900 rpm for 15 min, the supernatant was diluted 3 times with water. 20 μL of diluted supernatant was injected into the LC/MS/MS system for quantitative analysis and concentration of analyte determined by comparison with matrix matched standard curve. WinNonlin (Phoenix™, version 8.3) or other similar software may be used for pharmacokinetic calculations.

[2] = Plasma stability assay, rat plasma; assay type: in vitro ADME; settings: 37° C., Method 2 (10 μM)
Protocol: Exemplary compounds of the disclosure are stable upon incubation in mouse plasma. Stability is expressed as a % remaining after 120 minutes. The experimental methods and results (Table 2) are provided hereinafter.
Plasma Stability Assay, Method 1
From stock solution of compound in 10 mM DMSO, a working solution of 1 mM is prepared by diluting the compound in DMSO. To 398 μL of plasma pre-warmed at 37° C. for 15 minutes), 2 μL of working solution of compound is added, resulting in a final concentration of 5 μM (0.5% DMSO) for the compound. The sample is then incubated at 37° C. Aliquot is withdrawn at specified time-points (0, 15, 30, 60 and 120 mins). The reaction is stopped by addition of 450 μL cold acetonitrile containing internal standard (IS). […] Aliquots of the supernatant is analysed using LC-MS/MS. The percent remaining of the compound at each time point is calculated with respect to the control sample (0 min time-point).
Plasma Stability Assay, Method 2
A working solution of compound (500 μM) is prepared in DMSO (100%). To 735 μL of plasma, 15 μL of working solution of compound is added—resulting in a final concentration of 10 μM (2% DMSO) for the compound. The sample is then incubated at 37° C. Aliquot is withdrawn at time-points—0, 15, 30, 60, 90 and 120 mins. The reaction is stopped by using chilled acetonitrile containing internal standard (IS). The samples are centrifuged and the supernatants analyzed using LC-MS/MS. The percent remaining of the compound at each time point is calculated with respect to the control sample (0 min time-point).

BRD4 BD2 = target: T2, BRD4 BD2 (Homo sapiens, UniProt O60885); test: NanoBRET bromodomain assay, NanoLuc-BRD4-BD2 fusion vector in HEK293 cells; assay type: cell-based; settings: for pIC50: NanoBRET, HEK293 cells, top concentration 10 μM; for BRD4 BD2% Activity Remaining @ 10 uM: first and second (2) batches; for Fold selectivity: IC50 for BRD4 BD1 divided by IC50 for BRD4 BD2, qualitative if an IC50 is at the upper limit
T2 construct: HEK293 cells were transfected using NanoLuc-BRD4-BD1 or NanoLuc-BRD4-BD2 fusion vectors; host or cells: HEK293
Excerpt: as §1

Structure (SMILES): CCNC(=O)c1cc(OC(C)c2c(C)cccc2C)c(C(=O)NC)[nH]1 (single isomer, unassigned) [Example 64, 3-(1-(2,6-dimethylphenyl)ethoxy)-N^5-ethyl-N^2-methyl-1H-pyrrole-2,5-dicarboxamide]
pIC50 (BRD4 BD1): ≤ 5.00

Structure (SMILES): CNC(=O)c1[nH]c(C(=O)NC2CC2)cc1O[C@@H](C)c1ccc(Cl)cc1 [Example 62, (S)-3-(1-(4-chlorophenyl)ethoxy)-N^5-cyclopropyl-N^2-methyl-1H-pyrrole-2,5-dicarboxamide]
bioavailability [1]: 8%
Plasma Stability (% remaining at 120 minutes) Rat [2]: 82%

Structure (SMILES): CNC(=O)c1[nH]c(C(=O)NC2CCC2)cc1OC(C)c1ccccc1F (single isomer, unassigned) [Example 43, N^5-cyclobutyl-3-(1-(2-fluorophenyl)ethoxy)-N^2-methyl-1H-pyrrole-2,5-dicarboxamide]
IV T1/2 [1]: 30 min
PO F (%) [1]: 58%
Plasma Stability (% remaining at 120 minutes) Rat [2]: 20%

Structure (SMILES): CCNC(=O)c1cc(OC(C)c2c(F)cccc2F)c(C(=O)NC)[nH]1 (single isomer, unassigned) [Example 55, 3-(1-(2,6-difluorophenyl)ethoxy)-N^5-ethyl-N^2-methyl-1H-pyrrole-2,5-dicarboxamide]
pIC50 (BRD4 BD1): ≤ 5.00
pIC50 (BRD4 BD2): < 5.00
Plasma Stability (% remaining at 120 minutes) Rat [2]: 88%

Structure (SMILES): CNC(=O)c1[nH]c(C(=O)NC2CCC2)cc1OC(C)c1ccc(Cl)cn1 (single isomer, unassigned) [Example 33, 3-(1-(5-chloropyridin-2-yl)ethoxy)-N^5-cyclobutyl-N^2-methyl-1H-pyrrole-2,5-dicarboxamide]
Plasma Stability (% remaining at 120 minutes) Rat [2]: 85%

Structure (SMILES): CNC(=O)c1[nH]c(C(=O)N[C@H]2CC[C@H](O)CC2)cc1O[C@@H](C)c1ccnnc1 (single isomer, unassigned) [Example 92, N^5-(4-hydroxycyclohexyl)-N^2-methyl-3-(1-(pyridazin-4-yl)ethoxy)-1H-pyrrole-2,5-dicarboxamide]
pIC50 (BRD4 BD1): ≤ 5.00

Structure (SMILES): CNC(=O)c1[nH]c(C(=O)NC2CCC2)cc1OC(C)c1ccc(Cl)cc1F (single isomer, unassigned) [Example 35]
IV T1/2 [1]: 30 min
PO F (%) [1]: 65%
Plasma Stability (% remaining at 120 minutes) Rat [2]: 67%

Structure (SMILES): CCNC(=O)c1cc(OC(C)c2ccccn2)c(C(=O)NC)[nH]1 (racemic) [Example 96, N^5-ethyl-N^2-methyl-3-(1-(pyridin-2-yl)ethoxy)-1H-pyrrole-2,5-dicarboxamide]
BRD4 BD2% Activity Remaining @ 10 uM (BRD4 BD2; listed as 96 (2)): 64%
Fold selectivity (BRD4 BD2; listed as 96(2)*): — (Fold ≥0 and ≤2)

Structure (SMILES): CNC(=O)c1[nH]c(C(=O)NCC(F)(F)F)cc1O[C@@H](C)c1ccccc1 [Example 54]
Plasma Stability (% remaining at 120 minutes) Rat [2]: 93%

Structure (SMILES): C#Cc1ccc(C(C)Oc2cc(C(=O)NCC)[nH]c2C(=O)NC)cc1 (single isomer, unassigned) [Example 70, N^5-ethyl-3-(1-(4-ethynylphenyl)ethoxy)-N^2-methyl-1H-pyrrole-2,5-dicarboxamide]
bioavailability [1]: 44%
Plasma Stability (% remaining at 120 minutes) Rat [2]: 92%

Structure (SMILES): CNC(=O)c1[nH]c(C(=O)NC(C)C)cc1O[C@@H](C)c1ccc(Cl)cc1 [Example 61, (S)-3-(1-(4-chlorophenyl)ethoxy)-N^5-isopropyl-N^2-methyl-1H-pyrrole-2,5-dicarboxamide]
Plasma Stability (% remaining at 120 minutes) Rat [2]: 81%

Structure (SMILES): CNC(=O)c1[nH]c(C(=O)N[C@H]2CC[C@H](O)CC2)cc1OC(C)c1ccccc1F (single isomer, unassigned) [Example 45]
pIC50 (BRD4 BD1): ≤ 5.00
pIC50 (BRD4 BD2): 6.70 to 7.30
Plasma Stability (% remaining at 120 minutes) Rat [2]: 88%

Structure (SMILES): CCNC(=O)c1[nH]c(C(=O)NC)c(O[C@@H](C)c2ccccc2F)c1Br [Example 72, (S)-3-bromo-N^2-ethyl-4-(1-(2-fluorophenyl)ethoxy)-N^5-methyl-1H-pyrrole-2,5-dicarboxamide]
Plasma Stability (% remaining at 120 minutes) Rat [2]: 9%

Structure (SMILES): CCNC(=O)c1[nH]c(C(=O)NC)c(O[C@@H](C)c2ccccc2F)c1C [Example 74]
pIC50 (BRD4 BD1): ≤ 5.00
Fold selectivity (BRD4 BD2): X (Fold >2 and ≤50)
pIC50 (BRD4 BD2): 5.00 to 6.00

Structure (SMILES): CCNC(=O)c1cc(OC(c2ccccc2)c2ccccc2)c(C(=O)NC)[nH]1 [Example 53, 3-(benzhydryloxy)-N^5-ethyl-N^2-methyl-1H-pyrrole-2,5-dicarboxamide]
Plasma Stability (% remaining at 120 minutes) Rat [2]: 91%

Structure (SMILES): CNC(=O)c1[nH]c(C(=O)NC2CC2)cc1O[C@@H](C)c1ccccc1F [Example 59, (S)—N^5-cyclopropyl-3-(1-(2-fluorophenyl)ethoxy)-N^2-methyl-1H-pyrrole-2,5-dicarboxamide]
IV T1/2 [1]: 66 min
PO F (%) [1]: 70%
Plasma Stability (% remaining at 120 minutes) Rat [2]: 50%

Further lines, results first:

IV T1/2 [1]: 24 min
PO F (%) [1]: 47%
Plasma Stability (% remaining at 120 minutes) Rat [2]: 47%
Structure (SMILES): CNC(=O)c1[nH]c(C(=O)NC2CCC2)cc1OC(C)c1ccc(Cl)cc1 (single isomer, unassigned) [Example 27, 3-(1-(4-chlorophenyl)ethoxy)-N^5-cyclobutyl-N^2-methyl-1H-pyrrole-2,5-dicarboxamide]

Plasma Stability (% remaining at 120 minutes) Rat [2]: 75%
Structure (SMILES): CNC(=O)c1[nH]c(-c2ncc(C)[nH]2)cc1O[C@@H](C)c1ccccc1F [Example 68, (S)-3-(1-(2-fluorophenyl)ethoxy)-N-methyl-5-(5-methyl-1H-imidazol-2-yl)-1H-pyrrole-2-carboxamide]

Plasma Stability (% remaining at 120 minutes) Rat [2]: 90%
Structure (SMILES): CCNC(=O)c1cc(OC(C)c2ccc(Br)cc2)c(C(=O)NC)[nH]1 (single isomer, unassigned) [Example 49, 3-(1-(4-bromophenyl)ethoxy)-N^5-ethyl-N^2-methyl-1H-pyrrole-2,5-dicarboxamide]

Plasma Stability (% remaining at 120 minutes) Rat [2]: 83%
Structure (SMILES): CNC(=O)c1[nH]c(-c2ncc(C)[nH]2)cc1O[C@@H](C)c1ccc(Cl)cc1 [Example 69, (S)-3-(1-(4-chlorophenyl)ethoxy)-N-methyl-5-(5-methyl-1H-imidazol-2-yl)-1H-pyrrole-2-carboxamide]

pIC50 (BRD4 BD1): ≤ 5.00
Structure (SMILES): CNC(=O)c1[nH]c(C(=O)NC2CCC2)cc1OC(C)c1ccc(Cl)cc1 (single isomer, unassigned) [Example 28, 3-(1-(4-chlorophenyl)ethoxy)-N^5-cyclobutyl-N^2-methyl-1H-pyrrole-2,5-dicarboxamide]

Plasma Stability (% remaining at 120 minutes) Rat [2]: 93%
Structure (SMILES): CCNC(=O)c1cc(OC(C)c2ccc(I)cc2)c(C(=O)NC)[nH]1 (single isomer, unassigned) [Example 51, N^5-ethyl-3-(1-(4-iodophenyl)ethoxy)-N^2-methyl-1H-pyrrole-2,5-dicarboxamide]

BRD4 BD2% Activity Remaining @ 10 uM (BRD4 BD2; listed as 24 (2)): 78%
Fold selectivity (BRD4 BD2): X (Fold >2 and ≤50)
Fold selectivity (BRD4 BD2; listed as 24 (2)*): — (Fold ≥0 and ≤2)
Structure (SMILES): CNC(=O)c1[nH]c(-c2ncc(C)[nH]2)cc1O[C@H](C)c1ccccc1 [Example 24, (R)—N-methyl-5-(5-methyl-1H-imidazol-2-yl)-3-(1-phenylethoxy)-1H-pyrrole-2-carboxamide]

pIC50 (BRD4 BD2): 6.70 to 7.30
Structure (SMILES): CNC(=O)c1[nH]c(C(=O)N[C@@H]2CC[C@@H](O)C2)cc1O[C@@H](C)c1ccccc1 (racemic) [Example 116, N^5-(trans-3-hydroxycyclopentyl)-N^2-methyl-3-((S)-1-phenylethoxy)-1H-pyrrole-2,5-dicarboxamide]
